Data on 7 molecules can be found in ChEMBL document CHEMBL1143589, “Effects of 5'-phosphate derivatives of 2-hexynyl adenosine and 2-phenylethynyl adenosine on responses of human platelets mediated by P2Y receptors” (J Med Chem, 2005).

By IC50 is commonly meant the concentration at which inhibition is half-maximal. A high value points to a need for much substance. Broadly, the Inhibition is the relative decrease from the control value, in per cent. Lower therefore signals a response near the control.

Common to all, as to type: functional
The nature of experiment [1]: Effect of compound at 800 uM on platelet aggregation induced by 10 uM ADP.
Experiment [2] in a line: Inhibitory concentration of compound on platelet aggregation.
Experiment [3] is described as follows: Effect of compound at 1 uM on platelet aggregation induced by 10 uM ADP.
The nature of experiment [4]: Effect of compound at 10 uM on platelet aggregation induced by 10 uM ADP.
A short description of experiment [5]: Effect of compound at 100 uM on platelet aggregation induced by 10 uM ADP.
Experiment [6] can be described thus: Inhibitory effect of ADP (10 uM) on PGE1 (2 uM)-induced increase in platelet cAMP levels at 100 uM concentration of compound. In general terms: Cyclic AMP is a second messenger, typically raised through Gs and lowered through Gi signalling.
Experiment [7] is described as follows: Inhibitory effect of ADP (10 uM) on PGE1 (2 uM)-induced increase in platelet cAMP levels at 800 uM concentration of compound.
Experiment [8] in a line: Inhibitory effect of ADP (10 uM) on PGE1 (2 uM)-induced increase in platelet cAMP levels at 10 uM concentration of compound.
Experiment [9] is described as follows: Inhibitory effect of ADP (10 uM) on PGE1 (2 uM)-induced increase in platelet cAMP levels at 1 uM concentration of compound.
A short description of experiment [10]: Platelet shape change and aggregation induced by the compound at 1 uM concentration.
Experiment [11] in a line: Platelet shape change and aggregation induced by the compound at 10 uM concentration.
The nature of experiment [12]: Platelet shape change and aggregation induced by the compound at 100 uM concentration.
Experiment [13] is described as follows: Effect of compound on elevation of cAMP levels induced by 2 uM PGE1 at 1 uM.
The nature of experiment [14]: Effect of compound on elevation of cAMP levels induced by 2 uM PGE1 at 10 uM.
Experiment [15] is described as follows: Effect of compound on elevation of cAMP levels induced by 2 uM PGE1 at 100 uM.

On to `CCCCC#Cc1nc(N)c2ncn(C3O[C@H](COP(=O)(O)O)[C@@H](O)[C@H]3O)c2n1` (stereo partly specified), for which the Activity in experiment [1] came to 0; in experiment [3], 75.2; in experiment [4] it was 54.4; in experiment [5] it was 11.8. In [2], half-maximal inhibition (IC50) required 14 µM. For the same molecule, the Inhibition in experiment [6] was determined as 13.6%; in experiment [7], 58.2%; in experiment [8], 9.6%; in [9], 6.7%.
Regarding `Nc1nc(C#Cc2ccccc2)nc2c1ncn2C1O[C@H](COP(=O)(O)O)[C@@H](O)[C@H]1O` (stereo partly specified), the Activity in experiment [1] was determined as 0.2; in experiment [3], 86; in [4], 92.8; in [5], 58.4. The same molecule yielded a 50% inhibitory concentration (IC50) in experiment [2] of 130 µM. Moreover, the Inhibition in experiment [6] came out at 14.9%; in [7], 74.4%; in experiment [8] it was 4.1%; in experiment [9] it was 4.6%.
For the molecule `CCCCC#Cc1nc(N)c2ncn(C3O[C@H](COP(=O)(O)OP(=O)(O)O)[C@@H](O)[C@H]3O)c2n1` (stereo partly specified), the results for the Light transmission in experiment [10], in [11] and in experiment [12] were 0%, 17% and 41%, respectively. Moreover, the Activity is 58 in experiment [13]; 50 in experiment [14]; 38 in experiment [15]; 98 in experiment [3]; 99 in experiment [4]; 100 in experiment [5].
On to `CCCCC#Cc1nc(N)c2ncn(C3O[C@H](COP(=O)(O)OP(=O)(O)OP(=O)(O)O)[C@@H](O)[C@H]3O)c2n1` (stereo partly specified), for which the figures for the Light transmission in [10], in experiment [11] and in experiment [12] were 0%, 9% and 39%, respectively. Moreover, the Activity in experiment [13] stood at 59; in [14] it was 35; in experiment [15] it was 27; in [3], 92; in [4], 90; in experiment [5], 64.
As to `Nc1ncnc2c1ncn2[C@@H]1O[C@H](COP(=O)(O)OP(=O)(O)O)[C@@H](O)[C@H]1O` [ADENOSINE DIPHOSPHATE], the Light transmission in experiment [11] turned out to be 53%. This molecule also displayed an Activity in experiment [14] of 34.
As for `Nc1nc(C#Cc2ccccc2)nc2c1ncn2C1O[C@H](COP(=O)(O)OP(=O)(O)O)[C@@H](O)[C@H]1O` (stereo partly specified), the Activity in experiment [1] came out at 9.5; in experiment [3] it was 81.5; in [4] it was 77.4; in experiment [5] it was 43.2. For the same molecule, the IC50 in experiment [2] was 60 µM. Moreover, the Inhibition in experiment [6] worked out at 4.1%; in experiment [7], 29.5%; in [8] it was 2.6%; in experiment [9], 1%.
As to `Nc1nc(C#Cc2ccccc2)nc2c1ncn2[C@@H]1O[C@H](COP(=O)(O)OP(=O)(O)OP(=O)(O)O)[C@@H](O)[C@H]1O`, the Activity is recorded as 0.2 in experiment [1], 81 in [3], 81.6 in experiment [4] and 46.6 in experiment [5]. The IC50 in experiment [2] is 85 µM. For the same molecule, the Inhibition in [6] is reported as 5.7%; in [7] it was 68.9%; in experiment [8] it was 1.6%; in [9], 1.6%.
